Results published in patent US10793531B2, “Triazole derivatives and their use as PDE4 activators” (MIRONID LIMITED, priority 2015, dated 2020).
Like-named read-outs stand apart in the source and are kept apart here.

How the values were obtained:
full-length human PDE4B1 = molecular target: T1, full-length human PDE4B1 (Homo sapiens, UniProt Q07343); experiment: PDE4 radio-assay, PDE4B1 long form activation (Experiment 1); assay type: biochemical; details: n ≥ 2
T1 construct: stably expressed the full-length human PDE4D5, PDE4A4 and PDE4B1 long isoforms; made in house; cytosol fraction of the lysate
T1 sequence (Q07343 whole entry, canonical isoform): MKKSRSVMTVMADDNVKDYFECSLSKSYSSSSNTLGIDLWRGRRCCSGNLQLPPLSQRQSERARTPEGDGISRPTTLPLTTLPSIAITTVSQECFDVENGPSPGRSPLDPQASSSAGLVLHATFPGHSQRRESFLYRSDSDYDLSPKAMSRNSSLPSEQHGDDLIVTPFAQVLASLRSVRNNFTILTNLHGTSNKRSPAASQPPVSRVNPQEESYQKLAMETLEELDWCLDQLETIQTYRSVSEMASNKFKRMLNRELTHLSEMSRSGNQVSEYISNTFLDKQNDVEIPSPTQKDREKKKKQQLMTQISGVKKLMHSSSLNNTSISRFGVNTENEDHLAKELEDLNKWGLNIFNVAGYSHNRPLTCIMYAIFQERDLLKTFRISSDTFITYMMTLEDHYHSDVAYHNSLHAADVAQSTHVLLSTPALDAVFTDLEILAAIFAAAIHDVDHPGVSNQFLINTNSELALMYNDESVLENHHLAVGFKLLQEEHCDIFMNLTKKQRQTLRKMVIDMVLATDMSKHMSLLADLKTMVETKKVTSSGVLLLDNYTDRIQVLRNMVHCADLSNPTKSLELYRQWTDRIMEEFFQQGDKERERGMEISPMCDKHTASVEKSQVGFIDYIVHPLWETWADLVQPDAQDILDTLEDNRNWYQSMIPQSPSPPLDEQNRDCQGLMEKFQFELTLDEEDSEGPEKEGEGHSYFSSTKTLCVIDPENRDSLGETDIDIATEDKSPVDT
Description: One suitable method of detecting whether or not a compound is capable of serving as an activator of a PDE4 long form is using a two-step radio-assay procedure described in Experiment 1. In summary, the method involves incubating a PDE4 long form with a test small molecule activator, together with [^3H]-labelled cAMP to assess alterations in the breakdown of cAMP to the 5′-adenosine monophosphate (5′-AMP) product. A sample of the reaction mixture from such an incubation is subsequently treated with snake venom 5′-nucleotidase to allow conversion of the nucleotide [^3H]-labelled 5′-AMP to the uncharged nucleoside [^3H]-labelled adenosine, which can be separated and quantified to assess PDE4 activity and the effect of the test compound (Thompson, W. J. and Appleman, M. M. Biochemistry 10: 311-316, 1971, with some modifications as described in: Marchmont, R. J. and Houslay, M. D. Biochem J. 187: 381-92, 1980).
HEK 293 cells were transfected with pDEST™ PDE4 expression vectors using Lipofectamine LTX/Plus reagent (Invitrogen) as outlined by the manufacturer and clonal isolates expanded to obtain cell lines that stably expressed the full-length human PDE4D5, PDE4A4 and PDE4B1 long isoforms and the full length human PDE4B2 short isoform. These were called the HEK-PDE4D5, HEK-PDE4A4, HEK-PDE4B1 and HEK-PDE4B2 cell lines, respectively.
HEK-PDE4D5 cells were seeded out in 100 mm plates and incubated at 37° C. in an atmosphere of 5% CO2, 95% air. Cell lysates were prepared using KHEM buffer [50 mM KCl, 10 mM EGTA, 50 mM HEPES (pH 7.2), 1.92 mM MgCl2].
To prepare the cell lysates, the 100 mm plates containing the cells were placed on ice and washed with ice-cold PBS (phosphate buffered saline, pH 7.4). KHEM buffer (500 μl) was added to the cells. Cells were then scraped off the plate and triturated using a needle (BD Microlance™ 0.8, 40 mm). The lysed cells were then centrifuged at 2000 rpm for 10 minutes to remove cell debris and the supernatant (cell lysate containing recombinant PDE4D5) was transferred to a fresh tube and kept on ice.
The cell lysate containing recombinant PDE4D5 was transferred into a centrifuge tube and placed into an ultracentrifuge (BECKMAN COULTER) and spun at high speed (100,000 g) for 30 minutes at 4° C. The cytosol fraction was then collected and its protein amount determined using a BCA protein assay.
PDE assays were performed using a final concentration of 10 mM Tris/5 mM MgCl2 and 1 μM [3H]-cAMP (Perkin Elmer) plus PDE4D5 cell lysate cytosol fraction, containing over-expressed PDE4D5, with and without test compound. Incubations were performed at 30° C. for 5 minutes. The samples were then placed in a boiling water bath for 2 minutes to denature the PDE enzyme, and returned to ice. Samples were allowed to cool for 1.0 min after which snake venom 5′-nucleotidase (25 μl, 1 mg/ml; Sigma) was added. The tubes were vortexed and incubated in a water bath at 30° C. for 10 minutes, to attain conversion of [3H]-5′-AMP to [3H]-adenosine, and then placed on ice. Dowex ion exchange resin (Sigma) prepared as a 1:1 Dowex:water stock was thoroughly re-suspended and diluted 2:1 with ethanol. The resulting Dowex suspension (0.4 ml) was added to each tube. Tubes were vortexed to mix and then incubated on ice for at least 15 minutes before a final vortex. […] Tubes were vortexed thoroughly to mix and the recovered [3H]-adenosine was quantified by measuring counts over 1 minute in a scintillation counter.

HEK 293 cells = experiment: Reduction of intracellular cAMP levels in forskolin stimulated HEK 293 cells (Experiment 2); assay type: cell-based, human; details: 10 μM compound for 10 min prior to forskolin (10 μM) for 2 min; FIG. 5
Description: (§1) HEK 293 and MDCK cells (Public Health England, Cell Culture Collections) were maintained in DMEM supplemented with 10% (v/v) fetal bovine serum (Seralab), 2 mM L-glutamine, 1,000 U penicillin and 1,000 μg streptomycin (Life Technologies); termed complete media. Clonal HEK 293 cell lines were maintained in complete media supplemented with 0.6 mg/mL G418 (Enzo Life Sciences).
(§2) HEK 293 or MDCK cells were seeded at 100,000 cells per well, and left to adhere overnight. The cells were then treated with the compound indicated (10 μM) for 10 minutes, prior to stimulation with forskolin (10 μM, Sigma) for 2 minutes. Media was aspirated, and hydrochloric acid (0.1M) was added to lyse the cells. The cAMP assay (Enzo Life Sciences) was performed according to the manufacturers instructions.

MDCK cells = experiment: Reduction of intracellular cAMP levels in forskolin stimulated MDCK cells (Experiment 2); assay type: cell-based, canine; details: 10 μM compound for 10 min prior to forskolin (10 μM) for 2 min; FIG. 6
Description: as §1, §2

[1] = Pharmacokinetic profile in male C57 mice (Experiment 7); assay type: in vivo, mouse
Description: Example A was dissolved in 5% DMA+10% Solutol+85%(10% HPBCD in water) to afford a clear dosing solution of 1 mg/mL. The dosing solution was administered to three mice at 2 mg/kg i.v. via the tail vein and to three further mice at 10 mg/kg p.o. via oral gavage. Blood samples (ca. 20 μL) were collected at 2, 5, 20 min, 1, 2, 4, 8 and 12 h after i.v. dosing and at 15, 30 min, 1, 2, 4, 8, 12 and 24 h after oral dosing. The blood samples were diluted with 3 volumes of distilled water and stored at −80° C. until analysis. The samples were analysed by UPLC-MS/MS (API 5500).

OX161 cells = experiment: Reversal of in vitro cyst formation in OX161 cells (Experiment 10); assay type: cell-based, human; details: compound added every 2 days from day 10 to day 20, with forskolin; FIG. 13 Panel B
Description: In this study, the potential of PDE4 long form activators to reverse the formation of pre-formed cysts was evaluated in a human ADPKD patient-derived OX161 cell line. The experiment was carried out according to the method of Experiment 9. For the first 10 days, forskolin was added at every feed (every 2 days) but no test compound was added. For the. next 10 days, the test compound and forskolin were added at every feed (every 2 days).
Phase-contrast images were obtained every 2 days for 20 days. Per condition, 10 images were taken (in duplicate) and the average cyst area calculated.

- PDE4B1 activity (mean % increase in counts over basal activity without added compound) (full-length human PDE4B1; 1 μM compound): −2.4%
- PDE4B1 activity (mean % increase in counts over basal activity without added compound) (full-length human PDE4B1; 3 μM compound): 4.9%
- PDE4B1 activity (mean % increase in counts over basal activity without added compound) (full-length human PDE4B1; 10 μM compound): 22.0%
- PDE4B1 activity (mean % increase in counts over basal activity without added compound) (full-length human PDE4B1; 30 μM compound): 61.3%
- PDE4B1 activity (mean % increase in counts over basal activity without added compound) (full-length human PDE4B1; 50 μM compound): 92.9%
- abnormal effects observed in the mice ([1]; 2 mg/kg i.v. or 10 mg/kg p.o.): No abnormal effects were observed
- half-life ([1]; mouse, iv, 2 mg/kg i.v., whole blood, read-out: terminal half life after i.v. dosing (converted)): 4.2 h
- bioavailability ([1]; mouse, oral, 10 mg/kg p.o. vs 2 mg/kg i.v., whole blood): 66%
- half-life ([1]; mouse, po, 10 mg/kg p.o., whole blood, read-out: terminal half life after oral dosing (converted)): 4.9 h
SMILES: CCc1nc(-c2ccc(Cl)c(F)c2)nn1CC(=O)NCc1cccc(F)c1 [Example A, N-(3-Fluorobenzyl)-2-[3-(4-chloro-3-fluorophenyl)-5-ethyl-1H-1,2,4-triazol-1-yl]acetamide]
- intracellular cAMP levels in HEK293 cells (in words) (HEK 293 cells): reduction in intracellular cAMP levels
- intracellular cAMP levels in MDCK cells (in words) (MDCK cells): reduction in intracellular cAMP levels
- in vitro cyst formation in OX161 cells, reversal (in words) (OX161 cells): reversed in vitro cyst formation
